Data taken from ChEMBL document CHEMBL1201862, “PubChem BioAssay data set” (2004).
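A five-concentration, 48-hour dose response in 96-well plates underlies each endpoint, interpolated linearly between surrounding concentrations. GI50 = concentration required for 50% inhibition of growth.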 Calls of active or inactive are those of the source. No stated cut-off is given here; in the data, active = GI50 up to about 1.1 µM and inactive = higher.

Tests used:
Assay in all cases: DTP human tumour cell line panel, 48 h
SK-MEL-2 = tested on: SK-MEL-2
HOP-62 = tested on: HOP-62
UACC-257 = tested on: UACC-257
SF-268 = tested on: SF-268
UACC-62 = tested on: UACC-62
LOX IMVI = tested on: LOX IMVI
NCI-H460 = tested on: NCI-H460
OVCAR-8 = tested on: OVCAR-8
ACHN = tested on: ACHN
RPMI-8226 = tested on: RPMI-8226
SN12C = tested on: SN12C
TK-10 = tested on: TK-10
NCI-H23 = tested on: NCI-H23
OVCAR-5 = tested on: OVCAR-5
HL-60 = tested on: HL-60
NCI-H226 = tested on: NCI-H226

Measured: GI50

CCC1=NC(CO)[C@H](c2ccccc2)O1 (stereo partly drawn)
inactive: SK-MEL-2 > 100 µM | HOP-62 > 100 µM | UACC-257 > 100 µM | SF-268 > 100 µM | UACC-62 > 100 µM | LOX IMVI > 100 µM | NCI-H460 > 100 µM | OVCAR-8 > 100 µM | ACHN > 100 µM | RPMI-8226 > 100 µM | SN12C > 100 µM | TK-10 > 100 µM | NCI-H23 > 100 µM | OVCAR-5 > 100 µM

Cc1ccc(NS(=O)(=O)c2cc(C(C)(C)C)ccc2OCCOCCOCCOc2ccc(C(C)(C)C)cc2S(=O)(=O)Nc2ccc(C)cc2)cc1
inactive: SK-MEL-2 > 100 µM | HOP-62 > 100 µM | HL-60 > 100 µM | UACC-257 > 100 µM | SF-268 > 100 µM | UACC-62 > 100 µM | LOX IMVI > 100 µM | NCI-H460 > 100 µM | OVCAR-8 > 100 µM | ACHN > 100 µM | NCI-H226 > 100 µM | SN12C > 100 µM | TK-10 > 100 µM | NCI-H23 > 100 µM | OVCAR-5 > 100 µM

O=C1C=C(Nc2ccccc2C(=O)CC(=O)C(=O)Nc2ccc(Cl)c(Cl)c2)c2ccccc2C1=O
inactive: SK-MEL-2 30.6 µM | HOP-62 > 100 µM | UACC-257 20.9 µM | SF-268 19.9 µM | UACC-62 23.6 µM | NCI-H460 36.2 µM | OVCAR-8 26.7 µM | ACHN 73.5 µM | RPMI-8226 35.6 µM | NCI-H226 55.5 µM | SN12C 35.1 µM | NCI-H23 21.1 µM | OVCAR-5 > 100 µM

COc1ccc2c([nH]c3c(O)c(-c4c(C)cc5c([nH]c6c(CC=C(C)C)c(OC)ccc65)c4O)c(C)cc32)c1CC=C(C)C [BISMURRAYAFOLINE B]
inactive: SK-MEL-2 > 100 µM | HOP-62 > 100 µM | HL-60 > 100 µM | UACC-257 > 100 µM | SF-268 > 100 µM | UACC-62 > 100 µM | LOX IMVI > 100 µM | NCI-H460 > 100 µM | OVCAR-8 > 100 µM | ACHN > 100 µM | RPMI-8226 > 100 µM | SN12C > 100 µM | TK-10 > 100 µM | NCI-H23 > 100 µM | OVCAR-5 > 100 µM

CC1CC(c2ccc([N+](=O)[O-])cc2)=Nc2ccccc2S1 (stereo not drawn)
inactive: HOP-62 44.9 µM | HL-60 7.45 µM | UACC-257 18.7 µM | SF-268 17.3 µM | UACC-62 14 µM | LOX IMVI 6.89 µM | NCI-H460 27.1 µM | OVCAR-8 25.9 µM | ACHN 19.7 µM | RPMI-8226 2.3 µM | NCI-H226 23.2 µM | SN12C 18.2 µM | TK-10 28.2 µM | NCI-H23 15.8 µM | OVCAR-5 23.9 µM

CON1C(=O)C2(CCCCC2)C(=O)C12C=CC(C)CC2 (stereo not drawn)
inactive: SK-MEL-2 > 100 µM | HOP-62 > 100 µM | HL-60 49.5 µM | UACC-257 69.8 µM | SF-268 > 100 µM | UACC-62 > 100 µM | LOX IMVI > 100 µM | NCI-H460 > 100 µM | OVCAR-8 > 100 µM | RPMI-8226 72.3 µM | NCI-H226 76.6 µM | SN12C > 100 µM | TK-10 > 100 µM | NCI-H23 > 100 µM

COC(=O)C1=C(c2ccc(OC)c(OC)c2)OC(c2cc(OC)c(OC)c(OC)c2)C1 (stereo not drawn)
inactive: SK-MEL-2 20.1 µM | HOP-62 19.7 µM | UACC-257 > 100 µM | SF-268 27.9 µM | LOX IMVI 99.5 µM | NCI-H460 > 100 µM | OVCAR-8 25.9 µM | ACHN 36.4 µM | RPMI-8226 > 100 µM | NCI-H226 50.8 µM | SN12C 34.3 µM | TK-10 39.2 µM | NCI-H23 99.3 µM | OVCAR-5 > 100 µM

CC1=NN(C(=O)Cc2ccccc2)C(=O)/C1=C\C=C\c1ccccc1
inactive: SK-MEL-2 > 100 µM | HOP-62 > 100 µM | HL-60 > 100 µM | UACC-257 > 100 µM | SF-268 > 100 µM | LOX IMVI > 100 µM | OVCAR-8 > 100 µM | ACHN > 100 µM | RPMI-8226 > 100 µM | NCI-H226 > 100 µM | SN12C > 100 µM | TK-10 > 100 µM | NCI-H23 > 100 µM | OVCAR-5 > 100 µM

CCCCCCCCCCCC(=O)OCC1OC(n2cc(F)c(=O)[nH]c2=O)C(N)C(O)C1O (stereo not drawn)
inactive: SK-MEL-2 > 100 µM | HOP-62 > 100 µM | HL-60 38.9 µM | UACC-257 > 100 µM | SF-268 > 100 µM | UACC-62 42 µM | NCI-H460 78.9 µM | OVCAR-8 73.5 µM | ACHN > 100 µM | RPMI-8226 > 100 µM | NCI-H226 > 100 µM | SN12C > 100 µM | NCI-H23 84.7 µM | OVCAR-5 11.5 µM

COc1ccc(S(=O)(=O)N/N=C/c2cc(I)cc([N+](=O)[O-])c2O)cc1OC
inactive: SK-MEL-2 22.5 µM | HL-60 23 µM | UACC-257 39 µM | UACC-62 25.8 µM | LOX IMVI 43.3 µM | NCI-H460 55 µM | OVCAR-8 53.2 µM | ACHN 30.4 µM | RPMI-8226 24 µM | NCI-H226 22.7 µM | SN12C 32.8 µM | TK-10 62.1 µM | OVCAR-5 > 100 µM

NC(=O)N/N=C(\C(=O)C(=O)Nc1ccc(Cl)c(C(F)(F)F)c1)c1nc2ccc(C(=O)c3ccccc3)cc2nc1O
inactive: SK-MEL-2 > 100 µM | UACC-257 72.4 µM | SF-268 70.3 µM | UACC-62 59 µM | NCI-H460 > 100 µM | OVCAR-8 88.9 µM | ACHN 82.4 µM | RPMI-8226 > 100 µM | NCI-H226 47.3 µM | SN12C 99.5 µM | TK-10 > 100 µM | NCI-H23 97.9 µM | OVCAR-5 > 100 µM

O=C(O)CP(=S)(S)c1ccccc1 (stereo not drawn)
inactive: SK-MEL-2 > 100 µM | HOP-62 > 100 µM | HL-60 > 100 µM | UACC-257 > 100 µM | SF-268 > 100 µM | UACC-62 > 100 µM | LOX IMVI > 100 µM | NCI-H460 > 100 µM | OVCAR-8 > 100 µM | ACHN > 100 µM | NCI-H226 > 100 µM | SN12C > 100 µM | TK-10 > 100 µM | NCI-H23 > 100 µM

CC1(C)CCc2cc3c(cc2O1)OC(C)(C)C1c2c(ccc4c2CCC(C)(C)O4)OC31 (stereo not drawn)
inactive: SK-MEL-2 > 100 µM | HOP-62 > 100 µM | HL-60 51.1 µM | SF-268 > 100 µM | UACC-62 > 100 µM | LOX IMVI > 100 µM | NCI-H460 > 100 µM | OVCAR-8 > 100 µM | ACHN > 100 µM | RPMI-8226 > 100 µM | NCI-H226 > 100 µM | SN12C > 100 µM | NCI-H23 > 100 µM | OVCAR-5 68.4 µM

CCOC(=O)c1cnc2oc(-c3ccc(OC)cc3)nn2c1=O
inactive: SK-MEL-2 > 100 µM | UACC-257 > 100 µM | SF-268 > 100 µM | UACC-62 71.1 µM | OVCAR-8 > 100 µM | RPMI-8226 > 100 µM | NCI-H226 > 100 µM | SN12C > 100 µM | TK-10 > 100 µM | NCI-H23 > 100 µM | OVCAR-5 > 100 µM
